Values of other authors as cited in US20240009133A1, “METHODS OF TREATING AUTOIMMUNE OR INFLAMMATORY CONDITIONS WITH CANNABIDIOL OR ITS DERIVATIVES/ANALOGS” (ORCOSA INC., priority 2020, published 2024).

Details: oral, randomized control trial in Crohn's disease

For `C=C(C)[C@@H]1CCC(C)=C[C@H]1c1c(O)cc(CCCCC)cc1O` [CBD, cannabidiol], the efficacy is listed as “no statistical efficacy demonstrated” and the safety is listed as “safe”.
